“And” between values parts separate entries of the source, which are not always exact repeats. Equal entries are not always repeated. Where two headings read alike, the source gives them in different places.
Experiments:
[1] = target: T1, mouse TRPV3 (Mus musculus, UniProt Q8K424); experiment: Whole-cell recordings of TRPV3 currents in HEK293 cells; assay type: cell-based; conditions: for EC50: EC50 of 2-APB-evoked TRPV3 whole-cell current, Vh −60 mV; for EC50 / Hill coefficient nH of 2-APB concentration-response: after full sensitization
T1 construct: Full-length cDNA for murine TRPV3 was isolated and subcloned into pIRES2-EGFP; expressed in transfected cells; host or cells: HEK293 (transient)
T1 sequence (Q8K424 1-791): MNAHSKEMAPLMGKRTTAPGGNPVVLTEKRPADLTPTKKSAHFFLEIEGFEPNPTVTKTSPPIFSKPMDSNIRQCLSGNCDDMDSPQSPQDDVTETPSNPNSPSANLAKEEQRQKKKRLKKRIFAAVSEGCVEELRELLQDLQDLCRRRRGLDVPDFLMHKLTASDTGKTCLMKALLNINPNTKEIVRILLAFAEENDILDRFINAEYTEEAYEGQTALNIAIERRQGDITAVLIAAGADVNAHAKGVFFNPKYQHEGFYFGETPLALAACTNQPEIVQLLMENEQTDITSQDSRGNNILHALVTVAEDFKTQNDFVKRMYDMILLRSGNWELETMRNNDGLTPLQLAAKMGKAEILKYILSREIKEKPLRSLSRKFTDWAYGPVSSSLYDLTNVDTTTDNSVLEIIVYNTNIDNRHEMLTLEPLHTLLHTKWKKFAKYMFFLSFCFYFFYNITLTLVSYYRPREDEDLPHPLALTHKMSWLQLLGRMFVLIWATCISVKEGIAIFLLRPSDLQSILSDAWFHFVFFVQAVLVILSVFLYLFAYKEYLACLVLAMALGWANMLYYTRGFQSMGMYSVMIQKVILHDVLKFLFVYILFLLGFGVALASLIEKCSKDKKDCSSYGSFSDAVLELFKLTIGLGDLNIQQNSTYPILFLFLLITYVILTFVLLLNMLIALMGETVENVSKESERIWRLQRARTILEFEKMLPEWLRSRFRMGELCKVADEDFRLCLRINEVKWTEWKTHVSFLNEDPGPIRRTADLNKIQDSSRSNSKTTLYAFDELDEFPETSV
Description: The resulting mutations were verified by DNA sequencing.
Whole-cell recordings were performed the following day. […] Camphor was purchased from Acros (New Jersey, USA).

[2] = target: T2, TRPV1 (Rattus norvegicus, UniProt O35433); experiment: Inside-out patch recordings from TRPV1-expressing HEK293 cells; assay type: cell-based; conditions: +60 mV
T2 construct: expressed in transfected cells; host or cells: HEK293
From the text: (§1) Full-length cDNA for murine TRPV3 was isolated and subcloned into pIRES2-EGFP, as previously described. The wild-type rat TRPV1, TRPV2 and TRPM8 cDNAs were generously provided by Dr. Feng Qin (State University of New York at Buffalo, Buffalo). All mutations were made using either QuikChange® XL site-directed mutagenesis kit (Agilent Technologies) or the overlap-extension polymerase chain reaction (PCR) method as previously described. The resulting mutations were verified by DNA sequencing. HEK293 cells were grown in DMEM containing 4.5 mg/ml glucose, 10% heat-inactivated fetal bovine serum, 50 units/ml penicillin, and 50 μg/ml streptomycin. For electrophysiological experiments, cells were seeded in 35 mm culture dishes and transfected with the desired DNA constructs using Lipofectamine 2000 (Invitrogen) following the protocol provided by the manufacturer. Stable TRPV3 expressing cells were selected in the G418-containing medium. […]
(§2) Transfected HEK293 cells were reseeded on 12 mm round glass coverslips (Warner Instruments) one day after transfection. […] Voltage commands were made from the Patchmaster program, and the currents were recorded at 5 kHz. […] As determined by the conductance tests, the solution around a patch under study was fully controlled by the application of a solution with a flow rate of 100 μl/min or greater. […]

[3] = no reference given; cited from earlier work
[4] = target: T3, TRPV1(E600Q/T633A) (Rattus norvegicus, UniProt O35433, E600Q/T633A); experiment: Whole-cell recordings of TRPV1(E600Q/T633A) in HEK293 cells; assay type: cell-based; conditions: −60 mV
T3 construct: expressed in transfected cells; host or cells: HEK293
From the text: as §1, §2

[5] = target: T4, TRPV3 (Mus musculus, UniProt Q8K424); experiment: cell-based
From the text: (§3) Full-length cDNA for murine TRPV3 was isolated and subcloned into pIRES2-EGFP, as previously described. The wild-type rat TRPV1, TRPV2 and TRPM8 cDNAs were generously provided by Dr. Feng Qin (State University of New York at Buffalo, Buffalo). All mutations were made using either QuikChange® XL site-directed mutagenesis kit (Agilent Technologies) or the overlap-extension polymerase chain reaction (PCR) method as previously described. The resulting mutations were verified by DNA sequencing. HEK293 cells were grown in DMEM containing 4.5 mg/ml glucose, 10% heat-inactivated fetal bovine serum, 50 units/ml penicillin, and 50 μg/ml streptomycin. For electrophysiological experiments, cells were seeded in 35 mm culture dishes and transfected with the desired DNA constructs using Lipofectamine 2000 (Invitrogen) following the protocol provided by the manufacturer. Stable TRPV3 expressing cells were selected in the G418-containing medium. For intracellular Ca^2+ measurements, cells were transfected with the desired DNA constructs in the wells of 96-well plates without pre-seeding using Lipofectamine 2000 (Invitrogen) as described.

[6] = target: T4, TRPV3; conditions: 32 °C
From the text: as §3

[7] = 1H-NMR and mass spectrometry of compounds in solution; conditions: 1H-NMR in PBS and mass spectrometry
Description: The solution NMR samples were prepared at the final concentration of 1 mM for the test compound in PBS at three different pH values (5.5, 7.4 and 8.5). […] One-dimensional (1D) ^1H NMR spectra were collected with 2-s delays using a standard Varian 1D watergate pulse sequence. Two-dimensional (2D) ^1H NMR TOCSY (mixing time 100 ms) and NOESY (mixing time 500 ms) spectra were collected using standard Varian TOCSY and NOESY pulse sequences. All spectra were processed using NMRPipe[45] with 1D ^1H spectra analyzed using ACD/NMR Processor (www.acdlabs.com) while 2D ^1H spectra analyzed using SPARKY[46]. In TOCSY, cross-peaks were potentially generated between all resonances within a spin system, while in NOESY, the integrated intensity of a given cross-peak was interpreted in terms of the distance between the two hydrogen atoms that gave rise to the peak.
The molecular mass was then measured by using positive and negative ion electrospray ionization mass spectrometry (ESI-MS, Thermo Fisher Scientific Inc., Waltham, MA).

[8] = system: TRPV3 linker 2–3 mutants (L508R, D512N, S518V, A520S); conditions: 100 μM 2-APB; whole-cell and inside-out; after sensitization with 500 μM 2-APB
From the text: as §1, §2

[9] = target: TRPM8 (Rattus norvegicus, UniProt Q8R455); experiment: cell-based; conditions: for IC50: IC50 for inhibition of menthol-evoked TRPM8 current, 100 μM menthol
From the text: as §3
(§4) Transfected HEK293 cells were reseeded on 12 mm round glass coverslips (Warner Instruments) one day after transfection. Whole-cell recordings were performed the following day. Recording pipettes were pulled from borosilicate glass capillaries (Sutter or World Precision Instruments) to 2–4 MΩ when filled with internal solution containing (in mM) 140 CsCl, 2.0 MgCl2, 5 EGTA, 10 HEPES, pH 7.4. Bathing solution contained (in mM) 140 NaCl, 5 KCl, 5 EGTA, 1 MgCl2, 10 glucose and 10 HEPES, pH 7.4. Isolated cells were voltage clamped in the whole-cell mode using an EPC10 amplifier (HEKA Instruments Inc). Voltage commands were made from the Patchmaster program, and the currents were recorded at 5 kHz. […] Whole-cell recordings were typically sampled at 5 kHz and filtered at 1 kHz. The compensation of pipette series resistance and capacitance were taken by using the built-in circuitry of the amplifier (>80%) to reduce voltage errors. Exchange of external solutions was performed using a gravity-driven local perfusion system (Automate Scientific). Channel activators were diluted into the recording solution at the desired final concentrations and applied to the cell through perfusion. As determined by the conductance tests, the solution around a patch under study was fully controlled by the application of a solution with a flow rate of 100 μl/min or greater. […] The acidic solutions contained (in mM): 140 NaCl, 5 KCl, 5 EGTA, 1 MgCl2, 10 glucose, and 10 MES, with pH adjusted to desired values by NaOH. For inside-out recordings, both the pipette solution and bath solution contained (in mM) 140 NaCl, 5 KCl, 5 EGTA, 1 MgCl2, 10 HEPES, pH 7.4. Excised patches were held constantly at desired potentials while compounds were repetitively applied and washed from the bath. For recordings from HEK293 cells under acidic pH conditions, the solution also contained 50 μM amiloride as an inhibitor of the native ASIC channels. Camphor was purchased from Acros (New Jersey, USA). Diphenyl borate (DPB) was synthesized by Beijing Realchem Technology Company (Beijing, China). Other chemicals were purchased from Sigma (Sigma, St. Louis, MO). Water-insoluble reagents were dissolved in either 100% ethanol or DMSO to make stock solutions and were diluted in the bathing solution at appropriate concentrations before experiments. […] All experiments except those for heat activation were performed at room temperature (22–24 °C).

[10] = target: TRPV2 (Rattus norvegicus, UniProt Q9WUD2); experiment: cell-based; conditions: for EC50: EC50 of 2-APB-evoked TRPV2 whole-cell current
From the text: as §3, §4

Sequence of TRPV2 (Q9WUD2 whole entry): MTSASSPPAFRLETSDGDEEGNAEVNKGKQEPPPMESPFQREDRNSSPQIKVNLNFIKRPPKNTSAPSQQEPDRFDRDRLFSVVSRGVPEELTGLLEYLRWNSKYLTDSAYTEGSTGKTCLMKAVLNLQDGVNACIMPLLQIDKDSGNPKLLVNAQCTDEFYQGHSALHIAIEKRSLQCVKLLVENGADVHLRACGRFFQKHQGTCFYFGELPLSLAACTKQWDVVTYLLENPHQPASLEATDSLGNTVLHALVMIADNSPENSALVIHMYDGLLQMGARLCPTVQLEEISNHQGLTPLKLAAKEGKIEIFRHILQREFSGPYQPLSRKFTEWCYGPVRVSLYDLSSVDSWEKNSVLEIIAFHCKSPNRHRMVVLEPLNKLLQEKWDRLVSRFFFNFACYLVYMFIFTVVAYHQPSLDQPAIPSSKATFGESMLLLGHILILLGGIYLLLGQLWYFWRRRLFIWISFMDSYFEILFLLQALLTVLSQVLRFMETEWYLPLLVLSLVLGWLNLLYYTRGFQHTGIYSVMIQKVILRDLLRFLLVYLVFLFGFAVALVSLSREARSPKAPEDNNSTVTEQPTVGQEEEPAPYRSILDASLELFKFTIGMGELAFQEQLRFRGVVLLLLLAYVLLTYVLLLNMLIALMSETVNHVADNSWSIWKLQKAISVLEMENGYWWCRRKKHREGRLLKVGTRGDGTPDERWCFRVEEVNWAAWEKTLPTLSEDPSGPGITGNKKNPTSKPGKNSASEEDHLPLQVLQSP
Sequence of TRPM8 (Q8R455 whole entry): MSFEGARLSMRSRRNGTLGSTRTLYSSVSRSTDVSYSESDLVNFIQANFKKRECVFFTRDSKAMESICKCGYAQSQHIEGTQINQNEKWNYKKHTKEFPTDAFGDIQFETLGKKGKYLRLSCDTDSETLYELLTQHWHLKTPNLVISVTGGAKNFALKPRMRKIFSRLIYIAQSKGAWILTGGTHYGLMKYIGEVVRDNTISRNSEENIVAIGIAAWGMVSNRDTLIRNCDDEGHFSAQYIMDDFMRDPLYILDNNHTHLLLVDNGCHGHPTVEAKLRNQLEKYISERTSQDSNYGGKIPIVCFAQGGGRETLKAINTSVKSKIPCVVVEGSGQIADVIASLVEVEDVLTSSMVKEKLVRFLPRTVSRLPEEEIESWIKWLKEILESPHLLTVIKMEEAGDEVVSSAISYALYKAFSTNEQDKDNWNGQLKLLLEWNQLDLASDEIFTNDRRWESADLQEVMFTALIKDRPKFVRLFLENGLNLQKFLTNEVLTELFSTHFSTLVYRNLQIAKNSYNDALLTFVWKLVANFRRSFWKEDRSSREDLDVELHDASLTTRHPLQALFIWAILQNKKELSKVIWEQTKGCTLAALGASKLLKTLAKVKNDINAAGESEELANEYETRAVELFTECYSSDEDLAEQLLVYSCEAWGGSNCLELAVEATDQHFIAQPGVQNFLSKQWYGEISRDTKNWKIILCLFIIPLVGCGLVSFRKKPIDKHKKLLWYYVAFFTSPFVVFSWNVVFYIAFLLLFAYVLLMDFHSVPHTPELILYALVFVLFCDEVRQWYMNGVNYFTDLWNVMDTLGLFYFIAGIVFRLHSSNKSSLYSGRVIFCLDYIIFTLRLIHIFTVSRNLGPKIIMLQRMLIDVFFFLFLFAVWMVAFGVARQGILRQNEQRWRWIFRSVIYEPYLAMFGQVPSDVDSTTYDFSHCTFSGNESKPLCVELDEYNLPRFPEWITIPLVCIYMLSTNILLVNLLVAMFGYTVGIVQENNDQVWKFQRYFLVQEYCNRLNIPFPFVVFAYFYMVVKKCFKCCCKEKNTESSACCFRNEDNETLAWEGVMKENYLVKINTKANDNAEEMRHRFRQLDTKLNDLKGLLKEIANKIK
T3 sequence (O35433 whole entry E600Q/T633A): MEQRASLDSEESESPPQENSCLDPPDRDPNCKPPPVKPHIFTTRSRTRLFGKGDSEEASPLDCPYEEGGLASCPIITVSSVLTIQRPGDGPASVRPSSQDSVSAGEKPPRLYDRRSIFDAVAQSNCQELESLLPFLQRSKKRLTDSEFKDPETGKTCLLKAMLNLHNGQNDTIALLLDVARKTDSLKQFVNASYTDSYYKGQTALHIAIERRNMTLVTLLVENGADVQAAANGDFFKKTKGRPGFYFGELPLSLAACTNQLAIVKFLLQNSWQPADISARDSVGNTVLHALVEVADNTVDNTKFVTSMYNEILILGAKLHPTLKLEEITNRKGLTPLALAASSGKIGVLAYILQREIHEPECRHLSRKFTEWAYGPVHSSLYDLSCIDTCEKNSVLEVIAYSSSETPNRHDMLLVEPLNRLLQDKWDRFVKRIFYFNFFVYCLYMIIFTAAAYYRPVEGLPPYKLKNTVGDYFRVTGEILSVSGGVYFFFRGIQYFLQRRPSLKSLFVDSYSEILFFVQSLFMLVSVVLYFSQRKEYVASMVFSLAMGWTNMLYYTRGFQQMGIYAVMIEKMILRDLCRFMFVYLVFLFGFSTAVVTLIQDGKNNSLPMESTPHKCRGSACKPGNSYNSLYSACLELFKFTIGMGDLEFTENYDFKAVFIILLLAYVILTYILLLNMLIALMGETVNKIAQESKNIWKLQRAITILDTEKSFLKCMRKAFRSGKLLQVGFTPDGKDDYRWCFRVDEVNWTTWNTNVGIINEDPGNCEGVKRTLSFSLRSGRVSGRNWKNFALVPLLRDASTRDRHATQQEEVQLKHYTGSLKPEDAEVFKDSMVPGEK
T2 sequence (O35433 whole entry): as the sequence (O35433 whole entry E600Q/T633A) above, with Q600E, A633T counted along it

Q: What does the source list for `NCCOB(c1ccccc1)c1ccccc1` [2-APB, 2-aminoethoxydiphenyl borate]?
A: Half-maximal pH of 2-APB-activated TRPV3 currents ([1]; 10 μM 2-APB, pH 8.5 to 4.5, after sensitization with 100 μM 2-APB): 6.70 ± 0.02; EC50 ([1]; pH 5.5): 3.3 µM and 3.34 µM; EC50 ([1]; pH 7.4): 36.2 ± 2.1 µM; Hill coefficient nH of 2-APB concentration-response ([1]; pH 5.5): 2.0 ± 0.3 and 1.98 ± 0.34; Hill coefficient nH of 2-APB concentration-response ([1]; pH 7.4): 1.8 ± 0.2 and 1.76 ± 0.17; Increase of peak current at pH 5.5 over pH 7.4, cytoplasmic side ([2]; 100 μM 2-APB): more than 2 fold; pKa of the amino group [3]: 9.6; Effect of lowering extracellular pH to 5.5 on response ([4]; 10 μM 2-APB): strongly enhanced; EC50 [5]: 8.8 ± 1.5 µM; Drop of cytosolic pH ([5]; 300 μM 2-APB): ~ 0.35 pH unit; Effect of reducing extracellular pH to 5.5 on Ca2+ response ([6]; 166 μM 2-APB): not further increased; Effect of reducing extracellular pH to 5.5 on Fluo-4 fluorescence intensity ([6]; low to moderate 2-APB concentrations (6–55 μM)): markedly enhanced; Stability in solution [7]: easily hydrolyzed to DPB; Effect of low pH (5.5) on response to 2-APB in mutant channels [8]: greatly increased; inhibition at 10 µM ([9]; HEK293, pH 5.5, read-out: Inhibition of menthol-evoked TRPM8 current): 84 ± 2%; inhibition at 10 µM ([9]; HEK293, pH 6, read-out: Inhibition of menthol-evoked TRPM8 current): 69 ± 3%; inhibition at 10 µM ([9]; HEK293, pH 7.4, read-out: Inhibition of menthol-evoked TRPM8 current): 24 ± 2%; IC50 ([9]; pH 5.5): 3.1 µM and 3.07 µM; IC50 ([9]; pH 7.4): 20.5 µM; Hill coefficient nH of inhibition curve ([9]; pH 5.5): 1.5 ± 0.1 and 1.49 ± 0.08; Hill coefficient nH of inhibition curve ([9]; pH 7.4): 1.4 ± 0.3 and 1.41 ± 0.28; EC50 ([10]; pH 5.5): 112 ± 1.2 µM; EC50 ([10]; pH 7.4): 522 ± 10.2 µM; Hill coefficient nH of 2-APB concentration-response ([10]; pH 5.5): 5.2 ± 0.3 and 5.26 ± 0.35; Hill coefficient nH of 2-APB concentration-response ([10]; pH 7.4): 4.3 ± 0.3 and 4.34 ± 0.35

Q: What does the source list for `c1ccc(B(OB(c2ccccc2)c2ccccc2)c2ccccc2)cc1` [DPBA, diphenylboronic anhydride]?
A: Increase of evoked current by acid (pH 5.5) ([1]; 5 μM DPBA, after sensitization with 30 μM DPBA): ~ 7 fold; Stability in solution [7]: easily hydrolyzed to DPB

Q: Which “Increase of evoked current by acidic pH (5.5 versus 7.4)” value ([1]; 10 μM DPB, after sensitization with 100 μM 2-APB) does the source give for `OB(c1ccccc1)c1ccccc1` [DPB] here?
A: Its value is “about 5 fold”.

Q: Which TRPV3 current elicited ([1]; pH 7.4 (30 or 500 μM) or pH 5.5 (30 μM only), after sensitization with 100 μM 2-APB) does the source give for `OC(c1ccccc1)c1ccccc1` [DPM, diphenyl methanol] here?
A: Its TRPV3 current elicited is “no detectable current”.

Q: Which “Effect of acid (pH 5.5) on evoked TRPV3 current” value ([1]; 3 mM camphor, after sensitization with 100 μM 2-APB) does the source give for `CC12CCC(CC1=O)C2(C)C` (stereo not drawn) [camphor] here?
A: Its value is “slowed down the current development”.

Q: What does the source list for `COc1cc(CNC(=O)CCCC/C=C/C(C)C)ccc1O` [capsaicin]?
A: Effect of intracellular acid (pH 5.5) on evoked current ([2]; 0.1 μM capsaicin): did not enhance; Decrease of elicited current by lowering extracellular pH to 5.5 ([4]; 0.01 μM capsaicin): nearly one-half

Q: Which inhibition at 1000 µM ([1]; HEK293, pH 5.5, read-out: Inhibition of evoked TRPV3 current by acid (pH 5.5)) does the source give for `CC1CCC(C(C)C)C(O)C1` (stereo not drawn) [menthol] here?
A: Its inhibition at 1000 µM is about 48%.

Source: publication PMC4753485, “Selective potentiation of 2-APB-induced activation of TRPV1–3 channels by acid” (Scientific Reports, 2016)
